How the values were obtained:
[1] = tested on: reserpine-induced blepharospasm; assay: Anti-reserpine activity: prevention of reserpine-induced blepharospasm; assay type: in vivo, mice; settings: Mus musculus, 1 h; oral, 30 min before reserpine 2.5 mg/kg endoperitoneally; scored one hour after reserpine; dose reducing symptoms by 50% vs control
Text: (§1) 1-oxo-1H-naphtho[2,1-b]pyran derivatives as well as the pharmaceutical compositions containing them, being the object of the present invention, are active on the central nervous system as antidepressive agents. The antidepressive activity of the compounds of the invention, evaluated in mice from the prevention of reserpine-induced blepharospasm and hypothermia, is shown in the following Table, where the antireserpine effect is indicated as ED50 values, that is, doses able to prevent reserpine-induced blepharospasm and hypothermia by reducing symptoms of 50% if compared with the values obtainable in control animals.
(§2) Reserpine was administered endoperitoneally at a dosage of 2.5 mg/kg, and the compounds tested were administered orally 30 minutes before administration of reserpine. Recording of blepharospasm (evaluated in scores according to the technique described by Rubin B. et al in J. Pharmacol. 120, 125, 1957) and measurement of body temperature (by means of a rectal thermocouple […]) were taken an hour, and respectively, four hours after the administration of reserpine. In particular, the compounds object of the present invention not only allow to obtain a lower general toxicity in comparison with standard antidepressive agents, but also a lower cardiac toxicity as well as the lack of peripheral atropine effects.

[2] = tested on: reserpine-induced hypothermia; assay: Anti-reserpine activity: prevention of reserpine-induced hypothermia; assay type: in vivo, mice; settings: Mus musculus, 4 h; oral, 30 min before reserpine 2.5 mg/kg endoperitoneally; rectal temperature four hours after reserpine; dose reducing symptoms by 50% vs control
Text: as §1, §2

Row | SMILES | ED50 [1] [mg/kg] | ED50 [2] [mg/kg]
1 | CN(C)c1cc(=O)c2c(ccc3ccccc32)o1 [1-oxo-3-dimethylamino-1H-naphtho[2,1-b]pyran] | 8.7 | 21
2 | CCN(C)c1cc(=O)c2c(ccc3ccccc32)o1 [1-oxo-3-(N-methyl-N-ethyl)amino-1H-naphtho[2,1-b]pyran] | 4 | 15

From patent publication US4001424A, “1-Oxo-1H-naphtho [2,1-b] pyran derivatives for treating depression” (Carlo Erba S.p.A., priority 1973, dated 1977)
